In DBAASP:
Converted amounts (≈) assume the structure as drawn. “And” between values parts separate entries of the source, which are not always exact repeats. Equal values may be shown once.

Experiments:
Test in all cases: ≥ marks a high value that may be exact or a test limit, other limits are often not marked, values filed in µg/mL are converted to µM
[1] = system: Staphylococcus aureus ATCC 33591
[2] = system: Staphylococcus epidermidis ATCC 12228
[3] = system: Pseudomonas aeruginosa 119
[4] = system: Candida albicans ATCC 200955
[5] = system: Escherichia coli ATCC 8739
[6] = system: Candida albicans ATCC 10231
[7] = system: Staphylococcus aureus ATCC 6538
Pseudomonas aeruginosa = system: Pseudomonas aeruginosa
Escherichia coli MG1655 = system: Escherichia coli MG1655
[8] = system: Enterococcus faecium ATCC 700221
Acinetobacter baumannii = system: Acinetobacter baumannii
[9] = system: Staphylococcus aureus 936
[10] = system: Pseudomonas aeruginosa 124
[11] = system: Zymomonas mobilis ATCC 10988
Escherichia coli DL7 = system: Escherichia coli DL7
[12] = system: Bacillus subtilis CCT 2471
Escherichia coli 804 = system: Escherichia coli 804
[13] = system: Pseudomonas aeruginosa 86
[14] = system: Enterobacter cloacae ATCC 23355
Escherichia coli ML-35 = system: Escherichia coli ML-35
[15] = system: Klebsiella aerogenes ATCC 13048
[16] = system: Pseudomonas aeruginosa PAO1
Escherichia coli 780 = system: Escherichia coli 780
Staphylococcus aureus MR = system: Staphylococcus aureus MR
Bacillus subtilis DELTA = system: Bacillus subtilis DELTA
Bacillus thuringiensis = system: Bacillus thuringiensis
Proteus mirabilis = system: Proteus mirabilis
[17] = system: Escherichia coli DH5alpha
[18] = system: Staphylococcus saprophyticus
[19] = system: Klebsiella pneumoniae ATCC 700603
[20] = system: Acinetobacter baumannii ATCC 19606
[21] = system: Escherichia coli CCT 1371
Escherichia coli 850 = system: Escherichia coli 850
Candida parapsilosis = system: Candida parapsilosis

In the case of `CC[C@H](C)[C@H](NC(=O)[C@H](CCCN=C(N)N)NC(=O)[C@H](CCCCN)NC(=O)[C@H](CC(C)C)NC(=O)[C@H](CC(C)C)NC(=O)CN)C(=O)N[C@@H](CCCCN)C(=O)N[C@H](C(=O)N[C@@H](CC(C)C)C(=O)N[C@@H](CC(C)C)C(N)=O)[C@@H](C)O` [GLLKRIKTLL], the MIC [1] is reported as at least 512 µM, the MIC [2] is reported as 8 µM (≈ 9.23 µg/mL) and the MIC [3] is reported as 4 µM (≈ 4.61 µg/mL). It also gave an MIC [4] of at least 171 µM, an MIC [5] of at least 35.5 µM and an MIC [6] of 16.9 µM (≈ 19.5 µg/mL). For the same molecule, the MIC [7] was 43.3 µM and 65 µM, the MIC (Pseudomonas aeruginosa) was 11.3 µM (≈ 13.1 µg/mL) and the MIC (Escherichia coli MG1655) was at least 32 µM. The MIC [8] was at least 133 µM, the MIC (Acinetobacter baumannii) was 16 µM (≈ 18.5 µg/mL) and the MIC [9] was at least 64 µM. For the same molecule, the MIC [10] was at least 32 µM, the MIC [11] was at least 173 µM and the MIC (Escherichia coli DL7) was 16 µM (≈ 18.5 µg/mL). For the same molecule, the MIC [12] was 17.3 µM (≈ 20 µg/mL), the MIC (Escherichia coli 804) was at least 32 µM and the MIC [13] was 4 µM (≈ 4.61 µg/mL). The MIC [14] was at least 173 µM, the MIC (Escherichia coli ML-35) was 8 µM (≈ 9.23 µg/mL) and the MIC [15] was at least 32 µM. The MIC [16] was 173 µM (≈ 200 µg/mL), the MIC (Escherichia coli 780) was 16 µM (≈ 18.5 µg/mL) and the MIC (Staphylococcus aureus MR) was at least 45.3 µM. It also gave an MIC (Bacillus subtilis DELTA) of at least 173 µM, an MIC (Bacillus thuringiensis) of at least 173 µM and an MIC (Proteus mirabilis) of at least 173 µM. The MIC [17] was at least 260 µM, the MIC [18] was 4.33 µM (≈ 5 µg/mL) and the MIC [19] was 64 µM and 128 µM. It also gave an MIC [20] of 64 µM (≈ 73.8 µg/mL), an MIC [21] of at least 86.6 µM and an MIC (Escherichia coli 850) of at least 32 µM. It also gave an MIC (Candida parapsilosis) of at least 43.3 µM.
